# Test: Urinary excretion of flavanol metabolites (0-24 h) after a single serving of soluble cocoa product (HPLC-ESI-QToF-MS)
# Type: in vivo, human
# Settings: mean ± SD, n = 13; for Excreted in urine, Total: 24 h urine; for Excreted in urine, Basal: basal urine (−2–0 h, before intake)
# Procedure: They were non-smoker, non-vegetarian, non-pregnant women, who were not taking any medication or nutritional supplements, and were not suffering from any chronic pathology or gastrointestinal disorder. The sample size was estimated attending to similar previous bioavailability studies. The volunteers gave their informed consent prior to participation.
# The present randomized, single-blind study was carried out at the Human Nutrition Unit (HNU) of the Institute of Food Science, Technology and Nutrition (ICTAN). Volunteers attended the HNU on two days, separated by two weeks. Three days previous to each visit, participants were instructed not to consume cocoa products (chocolate, soluble cocoa, etc.), juices, tea, wine, grape must, oranges, tangerines, apples, grapes, strawberries or other berries, beets, onions, soybeans and soy derivatives.
# On each intervention day, volunteers arrived at the HNU after an overnight fast. […] The soluble cocoa products, either 15 g of CC or 25 g CC-PP, were dissolved in 200 mL of semi-skimmed milk following manufacturer’s preparation instructions. Plasma was separated by centrifugation (10 min, 3000 rpm, 4 °C) and stored at −80 °C until further analysis. […] A polyphenol-free breakfast, lunch and afternoon snack were provided 2 h, 4 h, and 8 h after consumption of cocoa products, and water and isotonic beverages were available ad libitum.
# Urine samples were diluted with an equivalent volume of Milli-Q water (50%) and centrifuged at 14000 rpm (10 min, 4 °C). Supernatants were filtered (0.45 μm pore-size cellulose-acetate membrane filters) and a 5 µL aliquot was directly injected into the LC-ESI-QToF-MS equipment.
# The test samples, either 30 μL of the plasma extract or 5 μL of diluted urine, were injected and separated using a mobile phase consisting of Milli-Q water (phase A) and acetonitrile (phase B), both containing 0.1% formic acid, at a flow rate of 0.3 mL/min. The mobile phase was initially programmed with 90% of solvent A and 10% of B. The elution program increased to 30% of solvent B in 10 min. Then, the initial conditions (10% solvent B) were recovered in 5 min and maintained for 5 min.
# Due to the lack of standards for certain phase II metabolites, they were tentatively quantified using the calibration curves of their corresponding phenolic precursors. […] The rest of microbial metabolites identified, derivatives of hydroxyphenylpropionic, hydroxyphenylacetic, hydroxybenzoic and hippuric acids, were quantified using their respective commercially available standards. Urine concentration of the excreted metabolites was normalized by the volume excreted in each studied interval. […] Calibration curves were freshly prepared in a pool of both plasma and urine due to matrix effects.
# Statistical analyses were carried out using the program SPSS (version 23.0, SPSS, Inc., IBM Company, New York, NY, USA). Significant differences between metabolites excreted in urine after consumption of CC and CC-PP cocoa products were evaluated based on non-parametric Wilcoxon test (p < 0.05). To determine the absorption and elimination of epicatechin metabolites after consumption of the soluble cocoa products, metabolite nutrikinetics were studied using the pharmacokinetic functions of Microsoft Excel, calculating the maximum concentration (Cmax), area under curve (AUC) and time to reach maximum concentration (Tmax). Data are expressed as mean ± standard deviation.
# [1] = after CC-PP (68.25 mg flavanols)
molecule,measurement,setting,value
4-Hydroxy-5-(hydroxyphenyl)valeric acid-glucuronide [HHPVA-glucuronide],"Excreted in urine, Total",[1],1.052 ± 0.182 µmol
same,"Excreted in urine, 0–4 h",[1],<L.Q.
same,"Excreted in urine, 4–8 h",[1],0.714 ± 0.088 µmol
same,"Excreted in urine, 8–12 h",[1],0.087 ± 0.019 µmol
same,"Excreted in urine, 12–24 h",[1],0.251 ± 0.075 µmol
"COc1ccc([C@H]2Oc3cc(O)cc(OS(=O)(=O)O)c3C[C@H]2O)cc1O (single isomer, unassigned) [Epicatechin-methoxy-sulfate (isomer 3), Epicatechin-methoxy-sulfate]","Excreted in urine, Total",after CC (19.80 mg flavanols),0.758 ± 0.125 µmol
same,"Excreted in urine, 0–4 h",after CC (19.80 mg flavanols),0.473 ± 0.089 µmol
same,"Excreted in urine, 4–8 h",after CC (19.80 mg flavanols),0.285 ± 0.036 µmol
same,"Excreted in urine, 8–12 h",after CC (19.80 mg flavanols),<L.Q.
same,"Excreted in urine, Total",[1],2.354 ± 0.402 µmol
same,"Excreted in urine, 0–4 h",[1],1.702 ± 0.243 µmol
same,"Excreted in urine, 4–8 h",[1],0.652 ± 0.148 µmol
same,"Excreted in urine, 8–12 h",[1],<L.Q.
same,"Excreted in urine, 12–24 h",[1],<L.Q.
"O=C(O)Cc1ccc(O)c(O)c1 [3,4-Dihydroxyphenylacetic acid]","Excreted in urine, Basal",CC intervention,0.094 ± 0.032 µmol
same,"Excreted in urine, Basal",CC-PP intervention,0.109 ± 0.015 µmol
same,"Excreted in urine, Total",after CC (19.80 mg flavanols),1.525 ± 0.974 µmol
same,"Excreted in urine, 0–4 h",after CC (19.80 mg flavanols),0.648 ± 0.505 µmol
same,"Excreted in urine, 4–8 h",after CC (19.80 mg flavanols),0.556 ± 0.379 µmol
same,"Excreted in urine, 8–12 h",after CC (19.80 mg flavanols),0.094 ± 0.033 µmol
same,"Excreted in urine, 12–24 h",after CC (19.80 mg flavanols),0.133 ± 0.020 µmol
same,"Excreted in urine, Total",[1],2.153 ± 0.401 µmol
same,"Excreted in urine, 0–4 h",[1],0.751 ± 0.057 µmol
same,"Excreted in urine, 4–8 h",[1],0.556 ± 0.096 µmol
same,"Excreted in urine, 8–12 h",[1],0.198 ± 0.037 µmol
same,"Excreted in urine, 12–24 h",[1],0.539 ± 0.196 µmol
"O=C(O)CCc1ccc(O)c(O)c1 [3,4-Dihydroxyphenylpropionic acid]","Excreted in urine, Basal",CC intervention,0.117 ± 0.024 µmol
same,"Excreted in urine, Basal",CC-PP intervention,0.213 ± 0.031 µmol
same,"Excreted in urine, Total",after CC (19.80 mg flavanols),0.866 ± 0.148 µmol
same,"Excreted in urine, 0–4 h",after CC (19.80 mg flavanols),0.217 ± 0.051 µmol
same,"Excreted in urine, 4–8 h",after CC (19.80 mg flavanols),0.243 ± 0.039 µmol
same,"Excreted in urine, 8–12 h",after CC (19.80 mg flavanols),0.074 ± 0.017 µmol
same,"Excreted in urine, 12–24 h",after CC (19.80 mg flavanols),0.215 ± 0.016 µmol
same,"Excreted in urine, Total",[1],1.117 ± 0.131 µmol
same,"Excreted in urine, 0–4 h",[1],0.256 ± 0.027 µmol
same,"Excreted in urine, 4–8 h",[1],0.238 ± 0.028 µmol
same,"Excreted in urine, 8–12 h",[1],0.109 ± 0.016 µmol
same,"Excreted in urine, 12–24 h",[1],0.301 ± 0.029 µmol
COc1cc(CC(=O)O)ccc1O [3-Methoxy-4-hydroxyphenylacetic acid],"Excreted in urine, Basal",CC intervention,0.103 ± 0.014 µmol
same,"Excreted in urine, Basal",CC-PP intervention,0.198 ± 0.071 µmol
same,"Excreted in urine, Total",after CC (19.80 mg flavanols),0.398 ± 0.118 µmol
same,"Excreted in urine, 0–4 h",after CC (19.80 mg flavanols),0.099 ± 0.054 µmol
same,"Excreted in urine, 4–8 h",after CC (19.80 mg flavanols),0.093 ± 0.028 µmol
same,"Excreted in urine, 8–12 h",after CC (19.80 mg flavanols),<L.Q.
same,"Excreted in urine, 12–24 h",after CC (19.80 mg flavanols),0.103 ± 0.022 µmol
same,"Excreted in urine, Total",[1],0.648 ± 0.178 µmol
same,"Excreted in urine, 0–4 h",[1],0.188 ± 0.026 µmol
same,"Excreted in urine, 4–8 h",[1],0.124 ± 0.050 µmol
same,"Excreted in urine, 8–12 h",[1],<L.Q.
same,"Excreted in urine, 12–24 h",[1],0.138 ± 0.016 µmol
COc1cc(CCC(=O)O)ccc1O [3-Methoxy-4-hydroxyphenylpropionic acid],"Excreted in urine, Basal",CC intervention,0.104 ± 0.027 µmol
same,"Excreted in urine, Basal",CC-PP intervention,0.077 ± 0.032 µmol
same,"Excreted in urine, Total",after CC (19.80 mg flavanols),0.248 ± 0.071 µmol
same,"Excreted in urine, 0–4 h",after CC (19.80 mg flavanols),0.144 ± 0.044 µmol
same,"Excreted in urine, 4–8 h",after CC (19.80 mg flavanols),<L.Q.
same,"Excreted in urine, 8–12 h",after CC (19.80 mg flavanols),<L.Q.
same,"Excreted in urine, 12–24 h",after CC (19.80 mg flavanols),<L.Q.
same,"Excreted in urine, Total",[1],0.461 ± 0.138 µmol
same,"Excreted in urine, 0–4 h",[1],0.175 ± 0.054 µmol
same,"Excreted in urine, 4–8 h",[1],<L.Q.
same,"Excreted in urine, 8–12 h",[1],<L.Q.
same,"Excreted in urine, 12–24 h",[1],0.199 ± 0.052 µmol
"O=C(O)CCC(O)Cc1ccc(O)c(O)c1 (stereo not drawn) [HDHPVA, 4-Hydroxy-5-(3′,4′-dihydroxyphenyl)valeric acid]","Excreted in urine, Total",after CC (19.80 mg flavanols),<L.Q.
same,"Excreted in urine, 4–8 h",after CC (19.80 mg flavanols),<L.Q.
same,"Excreted in urine, 8–12 h",after CC (19.80 mg flavanols),<L.Q.
same,"Excreted in urine, 12–24 h",after CC (19.80 mg flavanols),<L.Q.
same,"Excreted in urine, Total",[1],<L.Q.
same,"Excreted in urine, 0–4 h",[1],<L.Q.
same,"Excreted in urine, 4–8 h",[1],<L.Q.
same,"Excreted in urine, 8–12 h",[1],<L.Q.
same,"Excreted in urine, 12–24 h",[1],<L.Q.
"O=C1CCC(Cc2cccc(O)c2)O1 (stereo not drawn) [HPVL, 5-(3′-Hydroxyphenyl)-γ-valerolactone]","Excreted in urine, Total",after CC (19.80 mg flavanols),<L.Q. *
same,"Excreted in urine, 4–8 h",after CC (19.80 mg flavanols),<L.Q.
same,"Excreted in urine, 8–12 h",after CC (19.80 mg flavanols),<L.Q.
same,"Excreted in urine, 12–24 h",after CC (19.80 mg flavanols),<L.Q.
same,"Excreted in urine, Total",[1],0.104 ± 0.041 µmol
same,"Excreted in urine, 0–4 h",[1],<L.Q.
same,"Excreted in urine, 4–8 h",[1],0.104 ± 0.041 µmol
same,"Excreted in urine, 8–12 h",[1],<L.Q.
same,"Excreted in urine, 12–24 h",[1],<L.Q.
"O=C1CCC(Cc2ccc(O[C@@H]3O[C@H](C(=O)O)[C@@H](O)[C@H](O)[C@H]3O)c(O)c2)O1 (stereo partly drawn) [HPVL-4′-glucuronide, 5-(3′-Hydroxyphenyl)-γ-valerolactone-4′-glucuronide]","Excreted in urine, Basal",CC intervention,<L.Q.
same,"Excreted in urine, Basal",CC-PP intervention,<L.Q.
same,"Excreted in urine, 0–4 h",after CC (19.80 mg flavanols),<L.Q.
same,"Excreted in urine, 8–12 h",after CC (19.80 mg flavanols),<L.Q.
same,"Excreted in urine, 12–24 h",after CC (19.80 mg flavanols),<L.Q.
same,"Excreted in urine, Total",[1],0.961 ± 0.151 µmol
same,"Excreted in urine, 0–4 h",[1],<L.Q.
same,"Excreted in urine, 4–8 h",[1],0.330 ± 0.111 µmol
same,"Excreted in urine, 8–12 h",[1],0.550 ± 0.015 µmol
same,"Excreted in urine, 12–24 h",[1],0.081 ± 0.025 µmol
"O=C(O)Cc1cccc(O)c1 [Hydroxyphenylacetic acid, 3-Hydroxyphenylacetic acid]","Excreted in urine, Basal",CC intervention,0.369 ± 0.077 µmol
same,"Excreted in urine, Basal",CC-PP intervention,0.585 ± 0.070 µmol
same,"Excreted in urine, Total",after CC (19.80 mg flavanols),2.208 ± 0.328 µmol
same,"Excreted in urine, 0–4 h",after CC (19.80 mg flavanols),0.408 ± 0.084 µmol
same,"Excreted in urine, 4–8 h",after CC (19.80 mg flavanols),0.605 ± 0.092 µmol
same,"Excreted in urine, 8–12 h",after CC (19.80 mg flavanols),0.225 ± 0.052 µmol
same,"Excreted in urine, 12–24 h",after CC (19.80 mg flavanols),0.600 ± 0.100 µmol
same,"Excreted in urine, Total",[1],2.862 ± 0.654 µmol
same,"Excreted in urine, 0–4 h",[1],0.631 ± 0.140 µmol
same,"Excreted in urine, 4–8 h",[1],0.678 ± 0.231 µmol
same,"Excreted in urine, 8–12 h",[1],0.434 ± 0.070 µmol
same,"Excreted in urine, 12–24 h",[1],0.534 ± 0.143 µmol
O=C(O)CCc1ccc(O)cc1 [Hydroxyphenylpropionic acid],"Excreted in urine, Basal",CC intervention,0.118 ± 0.023 µmol
same,"Excreted in urine, Basal",CC-PP intervention,0.074 ± 0.013 µmol
same,"Excreted in urine, Total",after CC (19.80 mg flavanols),0.883 ± 0.154 µmol
same,"Excreted in urine, 0–4 h",after CC (19.80 mg flavanols),0.226 ± 0.046 µmol
same,"Excreted in urine, 4–8 h",after CC (19.80 mg flavanols),0.259 ± 0.043 µmol
same,"Excreted in urine, 8–12 h",after CC (19.80 mg flavanols),0.077 ± 0.018 µmol
same,"Excreted in urine, 12–24 h",after CC (19.80 mg flavanols),0.203 ± 0.025 µmol
same,"Excreted in urine, Total",[1],1.204 ± 0.243 µmol
same,"Excreted in urine, 0–4 h",[1],0.350 ± 0.038 µmol
same,"Excreted in urine, 4–8 h",[1],0.356 ± 0.076 µmol
same,"Excreted in urine, 8–12 h",[1],0.140 ± 0.041 µmol
same,"Excreted in urine, 12–24 h",[1],0.284 ± 0.075 µmol

# — article PMC6683251, “Flavanol Bioavailability in Two Cocoa Products with Different Phenolic Content. A Comparative Study in Humans” (Nutrients, 2019)
